This test addresses T1, β-galactosidase (A. oryzae) (Aspergillus oryzae, UniProt Q2UCU3).
T1 construct: gene lacA
T1 sequence (Q2UCU3 19-1005): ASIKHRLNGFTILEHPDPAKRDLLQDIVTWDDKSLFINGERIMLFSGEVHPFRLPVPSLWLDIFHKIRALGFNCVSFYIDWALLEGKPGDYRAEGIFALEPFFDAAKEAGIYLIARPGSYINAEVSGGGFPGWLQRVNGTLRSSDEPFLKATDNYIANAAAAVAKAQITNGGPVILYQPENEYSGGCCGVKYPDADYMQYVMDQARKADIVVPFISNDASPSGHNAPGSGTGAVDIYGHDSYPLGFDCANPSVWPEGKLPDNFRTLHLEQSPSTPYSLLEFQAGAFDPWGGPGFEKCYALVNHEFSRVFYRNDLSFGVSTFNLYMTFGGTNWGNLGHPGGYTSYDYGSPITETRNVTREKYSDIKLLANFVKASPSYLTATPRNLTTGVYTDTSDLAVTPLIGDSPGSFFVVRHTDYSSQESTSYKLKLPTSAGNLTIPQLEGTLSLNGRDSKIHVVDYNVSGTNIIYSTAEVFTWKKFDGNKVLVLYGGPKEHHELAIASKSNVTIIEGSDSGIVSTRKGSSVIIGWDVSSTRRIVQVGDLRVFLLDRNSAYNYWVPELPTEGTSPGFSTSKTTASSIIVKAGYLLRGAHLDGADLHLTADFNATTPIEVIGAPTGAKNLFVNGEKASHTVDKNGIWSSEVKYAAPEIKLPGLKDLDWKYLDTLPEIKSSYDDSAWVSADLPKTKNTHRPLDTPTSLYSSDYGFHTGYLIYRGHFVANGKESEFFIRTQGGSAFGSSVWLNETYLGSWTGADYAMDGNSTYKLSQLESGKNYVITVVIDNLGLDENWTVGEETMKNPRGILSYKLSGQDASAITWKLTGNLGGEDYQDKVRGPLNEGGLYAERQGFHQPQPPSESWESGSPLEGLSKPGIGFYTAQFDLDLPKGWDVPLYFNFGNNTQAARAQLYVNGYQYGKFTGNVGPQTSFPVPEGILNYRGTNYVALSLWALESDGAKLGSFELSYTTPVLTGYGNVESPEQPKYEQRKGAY
Kind of test: Enzyme kinetics with 2-nitrophenyl β-D-galactopyranoside, absorbance at […] nm, Lineweaver–Burk analysis, pH […] °C. It counts as biochemical.

This is an account of results in publication PMC12666248, “Synthesis of an N‐Galactosyl Norbornane Aziridine and its Potent Mixed Inhibition of Aspergillus oryzae β‐Galactosidase” (Chembiochem, 2025).

One may read the Ki as the dissociation constant of the complex between target and ligand, obtained from inhibition or displacement. A lower Ki goes with a stronger hold on the target.

With `OC[C@H]1O[C@@H](N2[C@@H]3[C@H]4CC[C@H](C4)[C@@H]32)[C@H](O)[C@@H](O)[C@H]1O` (stereo partly drawn) [compound 6, N‐(β‐D‐galactopyranosyl)‐exo‐3‐azatricyclo[3.2.1.0^2,4]octane], affinity was put at a Ki of 3.65 µM.
